In paper PMC10535292, “Quinoline- and Isoindoline-Integrated Polycyclic Compounds as Antioxidant, and Antidiabetic Agents Targeting the Dual Inhibition of α-Glycosidase and α-Amylase Enzymes” (Pharmaceuticals, 2023):
Where two headings read alike, the source gives them in different places.

Legend:
[1] = DPPH free radical scavenging assay; conditions: mean ± SE, triplicate; read-out: EC50 Radical Scavenging Activities DPPH
Protocol: (§1) The ability of the samples to scavenge free radicals was evaluated using a range of in vitro tests, including DPPH, ABTS, and superoxide anion radicals, with BHA utilized as a positive control.
(§2) The DPPH free radical, ABTS cation radical, and superoxide anion radical scavenging approaches were used in the antioxidant activity of the present study. The capacity for the radical scavenging was represented by EC50 values. […] Every sample was observed three times. Butylated hydroxyanisole (BHA) is the positive control drug in this evaluation of antioxidant activity.

[2] = ABTS cation radical scavenging assay; conditions: mean ± SE, triplicate; read-out: EC50 Radical Scavenging Activities ABTS
Protocol: as §1, §2

[3] = Superoxide anion radical scavenging assay; conditions: mean ± SE, triplicate; read-out: EC50 Radical Scavenging Activities Superoxide Anion Radicals
Protocol: as §1, §2

[4] = target: T1, type-VI B porcine pancreatic α-amylase (Sus scrofa, UniProt P00690); assay: α-Amylase inhibition with soluble starch (1%); type: biochemical; conditions: mean ± SE, triplicate
T1 construct: type-VI B porcine pancreatic α-amylase; from tissue; host or cells: porcine pancreas (preparation grade 'type-VI B')
T1 sequence (P00690 16-511): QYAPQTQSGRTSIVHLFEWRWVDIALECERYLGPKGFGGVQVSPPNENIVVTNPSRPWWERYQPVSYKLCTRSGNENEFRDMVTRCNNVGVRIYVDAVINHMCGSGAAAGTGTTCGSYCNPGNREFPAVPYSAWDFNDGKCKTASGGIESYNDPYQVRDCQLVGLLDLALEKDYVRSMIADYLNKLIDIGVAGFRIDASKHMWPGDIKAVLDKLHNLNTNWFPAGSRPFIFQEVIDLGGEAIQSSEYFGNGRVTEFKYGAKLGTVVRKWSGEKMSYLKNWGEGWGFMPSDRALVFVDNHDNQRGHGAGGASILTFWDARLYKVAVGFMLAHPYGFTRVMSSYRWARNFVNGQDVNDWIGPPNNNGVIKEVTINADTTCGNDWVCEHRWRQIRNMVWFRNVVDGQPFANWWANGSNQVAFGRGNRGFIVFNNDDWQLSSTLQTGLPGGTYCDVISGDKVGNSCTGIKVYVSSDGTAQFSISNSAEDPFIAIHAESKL
Protocol: Moreover, similar tests were carried out to reveal if the synthesized molecules inhibited α-amylase, another important carbohydrate-hydrolyzing enzyme.
(§3) Inhibitory activity of α-amylase and α-glycosidase was expressed as percent inhibition, calculated using the following formula. Inhibition (%) = (A control − A sample)/A control × 100
(§4) The IC50 values were obtained from a graph that correlated the percentage of the inhibition of each sample with its concentration. Each experiment included three replicates, along with appropriate blanks.

yeast α-glycosidase [5] = target: T2, yeast α-glycosidase (Saccharomyces cerevisiae, UniProt P38158); assay: biochemical
T2 sequence (P38158 whole entry): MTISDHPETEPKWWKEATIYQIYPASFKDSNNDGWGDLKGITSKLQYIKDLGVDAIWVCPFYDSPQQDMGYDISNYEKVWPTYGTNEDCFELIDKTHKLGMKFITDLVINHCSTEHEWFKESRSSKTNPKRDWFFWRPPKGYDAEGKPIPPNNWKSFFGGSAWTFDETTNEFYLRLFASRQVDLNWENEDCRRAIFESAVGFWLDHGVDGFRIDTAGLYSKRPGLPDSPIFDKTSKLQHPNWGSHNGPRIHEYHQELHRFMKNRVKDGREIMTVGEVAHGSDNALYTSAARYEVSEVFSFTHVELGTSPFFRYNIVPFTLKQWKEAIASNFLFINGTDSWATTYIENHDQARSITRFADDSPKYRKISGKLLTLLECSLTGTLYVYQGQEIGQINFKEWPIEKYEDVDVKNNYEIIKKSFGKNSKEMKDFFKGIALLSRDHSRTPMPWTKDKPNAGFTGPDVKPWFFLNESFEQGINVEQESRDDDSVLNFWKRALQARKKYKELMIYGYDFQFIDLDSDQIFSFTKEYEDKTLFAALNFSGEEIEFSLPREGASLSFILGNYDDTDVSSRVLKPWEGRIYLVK
Source text: as §3, §4

yeast α-glycosidase [6] = target: T2, yeast α-glycosidase; assay: Kinetic analysis of α-glycosidase inhibition (Lineweaver–Burk, Dixon plots); type: biochemical
Protocol: (§5) For the kinetic studies, α-glycosidase and α-amylase were incubated with designated concentrations of the substrate pNPG and starch, respectively, in the absence (control) or presence of IC20-, IC40-, and IC60-inhibitory concentrations of 7d. The mode of inhibition, [Km], and [Vmax] values were determined by graphical means using Lineweaver–Burk plots. […] The kinetic results established that the maximum velocity (Vmax) of the 7d reaction (with increasing concentrations) remained constant and was catalyzed by α-glycosidase and α-amylase (Table 3).
(§6) The enzyme kinetics of the compounds’ inhibition of the glycosidase activity were examined using different concentrations of the substrate against the IC20, IC40, and IC60 inhibitory concentrations of the compounds, as previously reported. The type of inhibition, Km, and Vmax were calculated using a double-reciprocal plot of the substrate concentration and velocity (1/V against 1/[pNPG]). The inhibitory constant (Ki) was also determined using the Dixon plot.

α-amylase = target: T3, α-amylase (Sus scrofa, UniProt P00690); assay: Kinetic analysis of α-amylase inhibition (Lineweaver–Burk, Dixon plots); type: biochemical, porcine
T3 construct: type-VI B porcine pancreatic α-amylase; from tissue; host or cells: porcine pancreas (preparation grade 'type-VI B')
T3 sequence (P00690 16-511): T1 sequence (P00690 16-511)
Protocol: as §5, §6

| Structure (SMILES) | EC50 [1] [µM] | EC50 [2] [µM] | EC50 [3] [µM] | IC50 [4] [µM] | IC50 (yeast α-glycosidase [5]) [µM] | melting point [°C] | further results |
| --- | --- | --- | --- | --- | --- | --- | --- |
| N#Cc1c(-c2ccc([N+](=O)[O-])cc2)nn(C(=O)COc2cccc3cccnc23)c1N [4a, 5-Amino-3-(4-nitrophenyl)-1-(2-(quinolin-8-yloxy)acetyl)-1H-pyrazole-4-carbonitrile] | 1500 ± 770 | 1300 ± 1000 | 1110 ± 270 | 720 ± 510 | 240 ± 50 | 157 to 159 |  |
| N#Cc1c(-c2ccccc2O)nn(C(=O)COc2cccc3cccnc23)c1N [4c, 5-Amino-3-(2-hydroxyphenyl)-1-(2-(quinolin-8-yloxy)acetyl)-1H-pyrazole-4-carbonitrile] | 4550 ± 1570 | 7860 ± 550 | 5950 ± 1050 | 1600 ± 770 | 1110 ± 740 | 157 to 159 |  |
| N#Cc1c(-c2ccc([N+](=O)[O-])cc2)cc(N2C(=O)c3ccccc3C2=O)nc1N [7b, 2-Amino-6-(1,3-dioxoisoindolin-2-yl)-4-(4-nitrophenyl)nicotinonitrile] | 2000 ± 150 | 2600 ± 770 | 2300 ± 1990 | 1500 ± 1500 | 1050 ± 880 | 153 to 155 |  |
| N#Cc1c(-c2ccc([N+](=O)[O-])cc2)cc(N2C(=O)c3ccccc3C2=O)[nH]c1=O [8b, 6-(1,3-Dioxoisoindolin-2-yl)-4-(4-nitrophenyl)-2-oxo-1,2-dihydropyridine-3-carbonitrile] | 4500 ± 790 | 9880 ± 2250 | 6000 ± 2450 | 1600 ± 830 | 1010 ± 40 | 221 to 223 |  |
| N#Cc1c(-c2ccccc2O)cc(N2C(=O)c3ccccc3C2=O)[nH]c1=O [8c, 6-(1,3-Dioxoisoindolin-2-yl)-4-(2-hydroxyphenyl)-2-oxo-1,2-dihydropyridine-3-carbonitrile] | 2500 ± 1110 | 2440 ± 670 | 5150 ± 770 | 3550 ± 1550 | 1800 ± 720 | 205 to 207 |  |
| N#Cc1c(-c2ccc(Cl)c(Cl)c2O)cc(N2C(=O)c3ccccc3C2=O)[nH]c1=O [8d, 4-(3,4-Dichloro-2-hydroxyphenyl)-6-(1,3-dioxoisoindolin-2-yl)-2-oxo-1,2-dihydropyridine-3-carbonitrile] | 5050 ± 2220 | 9990 ± 1890 | 5220 ± 850 | 5000 ± 3000 | 2220 ± 110 | 233 to 235 |  |
| COc1ccc(O)c(C(C)(C)C)c1 [BHA, Butylated hydroxyanisole, reference compound] | 800 ± 320 | 640 ± 310 | 950 ± 170 |  |  |  |  |
| NNC(=O)COc1cccc2cccnc12 [compound 1, 2-(Quinolin-8-yloxy)acetohydrazide] | 4650 ± 2250 | 4500 ± 1140 | 4500 ± 1110 | 900 ± 1040 |  | 137 to 139 | IC50 (yeast α-glycosidase [5]; mean ± SE, triplicate, read-out: IC50 α-Glycosidase): 500 ± 660 µM |
| CC(=NNC(=O)COc1cccc2cccnc12)c1ccc(N2C(=O)c3ccccc3C2=O)cc1 [compound 3, N’-(1-(4-(1,3-Dioxoisoindolin-2-yl)phenyl)ethylidene)-2-(quinolin-8-yloxy)acetohydrazide] | 1600 ± 1020 | 1350 ± 1100 | 1100 ± 550 | 910 ± 1550 | 470 ± 350 | 211 to 213 |  |
| N#Cc1c(-c2ccc(Cl)cc2)nn(C(=O)COc2cccc3cccnc23)c1N [compound 4b, 5-Amino-3-(4-chlorophenyl)-1-(2-(quinolin-8-yloxy)acetyl)-1H-pyrazole-4-carbonitrile] | 5000 ± 250 | 4750 ± 420 | 4500 ± 2000 | 1550 ± 1670 | 990 ± 330 | 163 to 165 |  |
| S=C1N=NC(COc2cccc3cccnc23)=N1 [compound 6, 5-((Quinolin-8-yloxy)methyl)-3H-1,2,4-triazole-3-thione] | 3330 ± 860 | 8010 ± 330 | 6100 ± 1540 | 3650 ± 2470 | 1500 ± 2000 | 187 to 189 |  |
| N#Cc1c(-c2ccccc2)cc(N2C(=O)c3ccccc3C2=O)nc1N [compound 7a, 2-Amino-6-(1,3-dioxoisoindolin-2-yl)-4-phenylnicotinonitrile] | 1990 ± 90 | 2250 ± 220 | 2250 ± 660 | 3500 ± 1000 | 1780 ± 60 | 167 to 169 |  |
| N#Cc1c(-c2ccccc2O)cc(N2C(=O)c3ccccc3C2=O)nc1N [compound 7c, 2-Amino-6-(1,3-dioxoisoindolin-2-yl)-4-(2-hydroxyphenyl)nicotinonitrile] | 1000 ± 850 | 1230 ± 480 | 1000 | 260 ± 320 | 110 ± 40 | 160 to 162 |  |
| N#Cc1c(-c2ccc(Cl)c(Cl)c2O)cc(N2C(=O)c3ccccc3C2=O)nc1N [compound 7d, 2-Amino-4-(3,4-dichloro-2-hydroxyphenyl)-6-(1,3-dioxoisoindolin-2-yl)nicotinonitrile] | 650 ± 30 | 520 ± 250 | 930 ± 120 | 210 ± 60 | 70 ± 100 |  | IC20 (yeast α-glycosidase [6]): 30 µM; Ki (dissociation constant) (yeast α-glycosidase [6]; α-glycosidase, Dixon plot, mean ± SE): 0.47 mg; Mode of Inhibition (yeast α-glycosidase [6]; α-glycosidase, Lineweaver–Burk plot): competitive inhibition; 1/Vmax (reciprocal maximum velocity) (yeast α-glycosidase [6]; α-glycosidase, treatment IC20 0.03 μg): 28.82 10^3 (µM/min)^−1; 1/Vmax (reciprocal maximum velocity) (yeast α-glycosidase [6]; α-glycosidase, treatment IC40 0.06 μg): 29.00 10^3 (µM/min)^−1; 1/Vmax (reciprocal maximum velocity) (yeast α-glycosidase [6]; α-glycosidase, treatment IC60 0.08 μg): 29.29 10^3 (µM/min)^−1; Ki (dissociation constant) (α-amylase; Dixon plot, mean ± SE): 0.75 mg; Mode of Inhibition (α-amylase; Lineweaver–Burk plot): competitive inhibition; IC20 (α-amylase; inhibitory concentration used in kinetics): 80 µM; 1/Vmax (reciprocal maximum velocity) (α-amylase; treatment IC20 0.08 μg): 13.01 10^3 (µM/min)^−1; 1/Vmax (reciprocal maximum velocity) (α-amylase; treatment IC40 0.16 μg): 13.90 10^3 (µM/min)^−1; 1/Vmax (reciprocal maximum velocity) (α-amylase; treatment IC60 0.25 μg): 13.15 10^3 (µM/min)^−1 |
| N#Cc1c(-c2ccccc2)cc(N2C(=O)c3ccccc3C2=O)[nH]c1=O [compound 8a, 6-(1,3-Dioxoisoindolin-2-yl)-2-oxo-4-phenyl-1,2-dihydropyridine-3-carbonitrile] | 3250 ± 1230 | 10000 ± 1170 | 5780 ± 3010 | 880 ± 360 | 1000 | 216 to 218 |  |
